Laboratory results published in paper PMC13198932, “Pyrazolone-based ERO1 inhibitors in ERO1-driven triple-negative breast cancer and SEPN1-related myopathy: Structure–activity relationship and therapeutic potential” (Pharmacological research, 2025).
“And” between values parts separate entries of the source, which are not always exact repeats. Equal entries are not always repeated. “Also recorded” adds a separate entry of the source. Where two headings read alike, the source gives them in different places.

Assays:
recombinant ERO1A = target: T1, recombinant ERO1A (Mus musculus, UniProt Q8R180); experiment: AUR-based kinetic assay of ERO1A activity (recombinant ERO1A and PDIA1, HRP, Amplex Ultra Red); type: biochemical; settings: for IC50: Table 1 in Fig. 3
T1 construct: GST-SMT3-mouse ERO1A (residues 43–464); GST-SMT3 (GST-SUMO) (N, cleaved yes); made in house; host or cells: E. coli Rosetta DE3 (Novagen)
T1 sequence (Q8R180 43-464): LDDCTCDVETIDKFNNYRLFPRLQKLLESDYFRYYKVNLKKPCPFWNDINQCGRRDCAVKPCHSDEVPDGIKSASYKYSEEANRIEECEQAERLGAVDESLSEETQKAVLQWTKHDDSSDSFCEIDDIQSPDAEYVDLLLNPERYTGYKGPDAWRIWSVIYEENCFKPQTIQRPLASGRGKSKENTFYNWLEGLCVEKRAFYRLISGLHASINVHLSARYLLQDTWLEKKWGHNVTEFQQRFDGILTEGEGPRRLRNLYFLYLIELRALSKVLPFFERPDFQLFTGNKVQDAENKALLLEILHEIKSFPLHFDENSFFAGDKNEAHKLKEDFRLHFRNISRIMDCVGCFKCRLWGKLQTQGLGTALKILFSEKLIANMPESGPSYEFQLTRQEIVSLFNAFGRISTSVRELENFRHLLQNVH
Description: A GST-SMT3-mouse ERO1A (residues 43–464) and His-tagged PDIA1 [30] were expressed in the Rosetta DE3 bacteria (Novagen) and purified as described in [29, 31]. The GST-SMT3 and His tags were cleaved using Ulp protease (Z03691, GenScript) and thrombin protease (T6884, Merck), respectively. Successful tag removal was confirmed by a shift to a lower molecular weight for ERO1A on SDS-PAGE and by the absence of signal in anti-His immunoblotting for PDIA1.
The kinetic assay of ERO1A activity is based on a reaction involving recombinant ERO1A and PDIA1 proteins, horseradish peroxidase (Worthington), and 5 μM Amplex Ultra Red, as detailed in [29]. The effect of ERO1A inhibitors was evaluated by preincubating the compounds with ERO1A and measuring the inhibition of the linear reaction rate, and the corresponding IC50 values were determined using Prism 10 (GraphPad).
EN460 and 16 newly synthesized derivatives (I24–I40) (except for I31, which was not evaluated due to potential toxicity associated with its CN group) were evaluated for their ability to inhibit ERO1-dependent AUR fluorescence using a kinetic assay with recombinant ERO1 and PDIA1, as previously described (Figs. 3A and 3B). Raw kinetic data showing AUR fluorescence over time in reactions containing reduced ERO1, PDIA1 and EN460-derivatives are presented in Fig. Sup.1 A and Sup. 1B. Reaction rates, measured in presence or absence of varying concentrations of each compound, were used to calculate IC50 values, defined as the concentration required to inhibit 50 % of ERO1 enzymatic activity (Figs. 3C, 3D and Fig. Sup1C).

E0771 cells = experiment: MTS assay of metabolic activity in E0771 cells; type: cell-based, murine; settings: E0771, dose-response, 24 h, 1 % FBS
Protocol: Six thousand cells (MDAMB231 and E0771) per well were seeded in 96-well plates and cultured in medium containing 1 % FBS. Cells were treated with varying concentrations of compounds and, after 24 h, incubated with MTS [3-(4,5-dimethylthiazol-2-yl)-5-(3-carboxymethoxyphenyl)-2-(4 sulfophenyl)2Htetrazolium]and PMS (phenazine methosulfate), following the instructions of the CellTiter 96® Aqueous Non-Radioactive Cell Proliferation Assay (Promega). Measurements were performed using a TECAN Infinite M200 plate reader with […] at 490 nm.

ERO1 in E0771 cells = target: T2, ERO1 in E0771 cells (Mus musculus, UniProt Q8R180); experiment: ERO1 redox state by non-reducing immunoblot in E0771 cells; type: cell-based, murine; settings: E0771, Fig. 4F
T2 construct: endogenous in cells; host or cells: E0771
T2 sequence (Q8R180 24-464): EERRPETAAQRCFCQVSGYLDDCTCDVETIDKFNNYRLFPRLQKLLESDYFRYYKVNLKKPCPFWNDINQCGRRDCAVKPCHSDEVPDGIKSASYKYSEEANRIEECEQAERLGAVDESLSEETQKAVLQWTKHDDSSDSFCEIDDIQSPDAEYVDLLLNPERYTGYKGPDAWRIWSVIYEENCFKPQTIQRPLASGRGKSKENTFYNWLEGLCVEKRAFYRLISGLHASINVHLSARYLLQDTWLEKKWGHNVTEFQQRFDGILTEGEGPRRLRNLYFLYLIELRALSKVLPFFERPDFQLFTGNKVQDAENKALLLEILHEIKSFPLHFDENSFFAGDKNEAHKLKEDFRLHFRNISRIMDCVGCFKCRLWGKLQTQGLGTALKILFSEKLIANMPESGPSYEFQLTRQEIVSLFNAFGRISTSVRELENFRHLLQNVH
Protocol: MDAMB231 and E0771 cells were maintained in Dulbecco’s Modified Eagle’s Medium supplemented with 1 % fetal bovine serum and seeded at 70 % confluency in six-well plates one day prior to the experiment. Cells were treated with DTT (10 mM) and/or ERO1A inhibitors for 1–5 h. At the time of collection, phosphate-buffered saline containing 10 mM NEM was added, and cells were incubated on ice for 10 min in lysis buffer (50 mM Tris-HCl, pH 7.4; 150 mM NaCl; 1 % Triton X-100; 0.1 % SDS; 1 % sodium deoxycholate; protease inhibitors; and 10 mM NEM). Protein concentrations were determined using the BCA assay, and equal amounts of protein were separated by non-reducing SDS-PAGE followed by immunoblotting with a polyclonal antibody against ERO1A [33].

[1] = compounds dissolved in DMSO, preincubated with ERO1A, NA stands for not active, read-out: IC50
[2] = logarithm of IC50 in μM, compounds dissolved in DMSO, read-out: Log IC50 (confidence intervals) (converted)

Compound	IC50 / potency relative to EN460 (recombinant ERO1A; compared with EN460)	ERO1 inhibitory activity (in words) (recombinant ERO1A; compounds dissolved in DMSO)	IC50 (recombinant ERO1A; [1])	IC50 (recombinant ERO1A; [2]) [µM]	metabolic activity (MTS assay) (E0771 cells)	ERO1 redox assay compared with EN460 (ERO1 in E0771 cells)
O=C1/C(=C/c2ccc(-c3ccccc3)o2)C(C(F)(F)F)=NN1c1ccccc1F [I29]	more than two times lower; also recorded: twofold lower; also recorded: approximately twofold higher activity; also recorded: twofold increase in potency	highest potency	2.6 µM and ~2.6 µM	2.63	superior efficacy of I29 over EN460	superior efficacy of I29 over EN460
O=C(O)c1cc(N2N=C(C(F)(F)F)/C(=C\c3ccc(-c4ccccc4)o3)C2=O)ccc1Cl [EN460, reference compound]	–	–	6 µM	5.89	–	–
